Measurements from patent US20060045880A1 (priority 2004, published 2006).

Columns and labels:
APJ transcript = test: Antisense morpholino loss-of-function in frog embryos (APJ); type: in vivo, Xenopus laevis
Protocol: One antisense morpholino oligonucleotide, designed to block translation from both copies of the APJ transcript, was targeted immediately upstream of the initiation ATG: apj 5′-[…]-3′ (SEQ ID NO:9).
The 5 base pair mismatch control sequence for the apj morpholino oligonucleotide (apjmm) is: apjmm 5′-AAGcCTcTGTGcAAcCAATAcAAAG-3′ (SEQ ID NO:10); the mismatch bases indicated in lowercase.
(§1) Morpholino oligonucleotides were reconstituted in 50 mM HEPES buffer (pH 8.0) and injected into the frog embryo. The ap1 MO was injected at 15 ng per embryo, and the ap2 and apj MOs were injected at 7.5 ng. Mismatch controls, ap2 mm and apjmm, were used at twice the experimental dose (15 ng). The MOs were injected into one cell of a 2 cell embryo together with Texas Red Dextran (10 ng; Molecular Probes) as a lineage tracer. Embryos were grown to stage 35 when they were assayed by in situ hybridization using the vascular marker, erg.

apelin transcript = test: Antisense morpholino loss-of-function in frog embryos (apelin); type: in vivo, Xenopus laevis
Protocol: Loss-of-function experiments were performed using antisense morpholino oligonucleotides (MOs) (Gene Tools, Philomath, Oreg.), and the results are shown in FIG. 9. All morpholino oligonucleotides were designed based on recommendations from Gene Tools.
as §1

apelin expression = test: Apelin expression in cardiac myocytes under cobalt chloride (hypoxia mimic), PCR; type: cell-based, rat
Protocol: Preliminary experiments were carried out using primary rat cardiomyocyte cells in culture and treatment with cobalt chloride. This procedure is accepted as an equivalent to culturing cells under hypoxic conditions because HIF-1α is a metal responsive transcription protein (Ladoux and Frelin, 1994; Piret et al., 2002; Maxwell and Salnikow, 2004). Fetal rat cardiac myocytes were plated and cultured in DMEM (Invitrogen, Carlsbad, Calif.) supplemented with 10% fetal calf serum and penicillin/streptomyocin at 37° C. After four days of culture, medium was removed, and cells were treated with fresh media containing 150 μM Cobalt Chloride (Piret et al., 2002). […] After 4 hours of culture, cells were harvested, and total RNA was extracted using the Trizol procedure according to the manufacturers recommendations (Invitrogen, Carlsbad, Calif.).
Following PCR, amplification products were fractionated on an agarose gel and visualized using ethidium bromide staining under ultraviolet light (FIG. 12).
The myocytes were grown in the presence of Cobalt chloride (30 μg/ml). A control known to be non-responsive to hypoxic conditions was used (β-actin), as well as two positive controls which are known to be responsive to hypoxic conditions (VEGF and GLUTI).

BAE/APJ#2 cells [1] = test: BAE/APJ#2 cell proliferation, BrdU incorporation; type: cell-based, bovine; set-up: effect on VEGF-mediated proliferation: dose or concentration left out as unconfirmed
Protocol: (§2) Bovine aortic endothelial cells (BAE) were cultured in DMEM supplemented with 10% fetal bovine serum (FBS) and penicillin/streptomycin. For generation of stable cell lines expressing APJ, the mouse APJ coding region was cloned into the pcDNA 3.1 vector downstream of the CMV promoter, in frame with a myc epitope at the C-terminal end of the protein, and upstream of the neomycin gene. Bovine aortic endothelial (BAE) cells were transfected with this construction using the Superfect transfection kit (Qiagen) and selected for resistance to G418 (600 μg/ml). Colonies were isolated and screened using RT-PCR for expression of mouse APJ and also by immunocytochemistry for expression of the myc epitope.

[2] = system: mouse endothelial cells (bEnd3); test: bEnd3 cell proliferation, BrdU incorporation; type: cell-based
Protocol: Similar cellular proliferation assays were performed using mouse endothelial cells (bEnd3) that constitutively express APJ. […] SU1498 was included in proliferation cultures at a 25 μM concentration, and results were assayed using BrdU incorporation.
Proliferation inhibition experiments with the bEnd3 cells also were carried out using FGF (50 ng/ml) or the FGF pathway inhibitor SU5402 (FIG. 19). SU5402 was included in proliferation cultures at a 20 μM concentration, and results were assayed using BrdU incorporation.

BAE/APJ#2 cells [3] = settings: 10 ng/ml in bottom chamber, 16 hours
Protocol: as §2
Cell migration assays were performed using Transwell cell culture migration chambers (Becton Dickinson) with 8 micron pore size. BAE/APJ#2 cells were plated in serum free conditions in 100 μl at a concentration of 1×10^5 ml in the upper chamber of the migration chamber. Following cell attachment to the membrane, 10 ng/ml of growth factor was added to the bottom chamber, in a total volume of 0.5 ml. […] Cells attached to the membrane in the lower chamber were stained with DAPI, and 3 random fields were counted for each experimental condition.

5′-AAGGCTGTGTGGAAGCAATAGAAAG-3′ (all phosphorodiamidate morpholino (PMO)) [antisense morpholino to the APJ receptor]
embryos with decrease in angiogenic growth of blood vessels (APJ transcript; 7.5 ng, N=48, stage 35): 71 % of the embryos

5′-AAGcCTcTGTGcAAcCAATAcAAAG-3′ (antisense AAGCCTCTGTGCAACCAATACAAAG; all phosphorodiamidate morpholino (PMO)) [apjmm]
alteration in the vascular growth of the embryos (APJ transcript; mismatch control, 15 ng): did not produce a detectable alteration

5′-GATTCATGTTTCTTGTGGCTGAGTG-3′ (all phosphorodiamidate morpholino (PMO)) [ap2]
embryos with loss of intersomitic vessel formation (apelin transcript; 7.5 ng, N=64, stage 35): 63 % of the embryos

5′-GATTgATcTTTgTTGTGcCTcAGTG-3′ (antisense GATTGATCTTTGTTGTGCCTCAGTG; all phosphorodiamidate morpholino (PMO)) [ap2 mm]
alteration in the vascular growth of the embryos (apelin transcript; mismatch control, 15 ng): did not produce a detectable alteration

5′-GTGCCCAAAGTCTGAGATTCATGTT-3′ (all phosphorodiamidate morpholino (PMO)) [ap1]
embryos with inhibition of angiogenic growth of embryonic blood vessels (apelin transcript; 15 ng per embryo, N=76, stage 35): 67 % of the embryos

[Cl][Co][Cl] [Cobalt Chloride]
apelin expression (PCR) (apelin expression; 150 μM Cobalt Chloride, 4 hours, fetal rat cardiac myocytes): significantly increased
apelin expression (apelin expression; Cobalt chloride 30 μg/ml, rat cardiac myocytes): induced

CC(C)c1cc(/C=C(\C#N)C(=O)NCCCc2ccccc2)cc(C(C)C)c1O [SU1498]
effect on VEGF-mediated proliferation (BAE/APJ#2 cells [1]; SU1498): partially inhibits
effect on apelin-mediated proliferation (BAE/APJ#2 cells [1]; SU1498 10 ng/ml): no significant effect
effect on VEGF-mediated proliferation ([2]; bEnd3, SU1498 25 μM, VEGF 50 ng/ml): partially inhibits
effect on apelin-mediated proliferation ([2]; bEnd3, SU1498 25 μM, apelin 10 ng/ml): no significant effect

Cc1c[nH]c(/C=C2\C(=O)Nc3ccccc32)c1CCC(=O)O [SU5402]
effect on the proliferative effect of FGF ([2]; bEnd3, SU5402 20 μM, FGF 50 ng/ml): partially inhibited
effect on apelin-stimulated cellular proliferation ([2]; bEnd3, SU5402 20 μM, apelin 10 ng/ml): did not have a significant effect

VEGF
endothelial cell migration (cells per field) (BAE/APJ#2 cells [3]): increase in migration
cellular proliferation of endothelial cells ([2]; bEnd3, apelin 10 ng/ml, VEGF 50 ng/ml, FIG. 17 0.1 ng/ml to 1 μg/ml): proliferate
